The LD50 is the dose at which mortality reaches 50%.

Structures can show the parent of a compound that is named as a salt. Where two headings read alike, the source gives them in different places.

Results on four compounds are retold here after patent US20090163528A1, “Pharmaceutical composition having analgesic effects” (priority 2004, published 2009).

Series [1] concerns Kunming breed mice. The class given is in vivo.
Series [2] has as its system mice. The class given is in vivo. The settings on record: Table 5. An excerpt: The division of animal groups, content of test drugs, dose and administration is the same as those in the body twisting test, while the contra positive is pethidine hydrochloride only.
In the course of the test, the mice show up reactions of hindleg sucking, hindleg kicking, skipping, etc; take the reaction of hindleg sucking as the pain indicator.

In series [3] the test system is Kunming breed mice. Briefly: Body twisting test, mixtures of fuziline and hypaconitine in different proportions (Test 6). The class given is in vivo. The following applies: hypaconitine 1 mg/kg stomach perfusion.
Series [4] in a line: Toxicity test of the active medical ingredients (previous acute toxicology). The settings on record: mouse, in vivo.
Series [5] deals with mice. The series is described as above. The following applies: mouse, in vivo.
Series [6] relates to Kunming breed mice. Format: in vivo. The following applies: mesaconitine 0.5 mg/kg stomach perfusion.
The subject of series [7] is Kunming breed mice. Briefly: Body twisting test, mixtures of fuziline and benzoylmesaconitine in different proportions (Test 7). Format: in vivo. The settings on record: benzoylmesaconitine 100 mg/kg stomach perfusion.
[8] abbreviates: Table 3, 0.5 mg/kg stomach perfusion.
Setting [9] is: Table 3, 1 mg/kg stomach perfusion.
[10] abbreviates: Table 3, 2 mg/kg stomach perfusion.
Setting [11] is: Table 3, 4 mg/kg stomach perfusion.
Setting [12] is: Table 3, 0.25 mg/kg stomach perfusion.
[13] abbreviates: Table 3, 50 mg/kg stomach perfusion.
Setting [14] is: Table 3, 100 mg/kg stomach perfusion.
[15] abbreviates: Table 3, 200 mg/kg stomach perfusion.
Where [16] appears, read: Table 3, 400 mg/kg stomach perfusion.

Consider `COC[C@@]12CCC(OC)C34C5C[C@@]6(O)C(OC(=O)c7ccccc7)C5[C@@](OC(C)=O)(C(C(OC)C31)[C@@H]4N(C)C2)[C@@H](O)C6OC` (stereo partly shown) [Hypaconitine, hypaconitine], for which the “Body twisting number ( χ ± SD)” value with Kunming breed mice [1] (setting [8]) was determined as 27.6 ± 11.5; with Kunming breed mice [1] (setting [9]), 24.5 ± 9.8; with Kunming breed mice [1] (setting [10]), 23.6 ± 10.9; with Kunming breed mice [1] (setting [11]), 2.8 ± 4.5. Further, the Pain suppression rate in the series with Kunming breed mice [1] (setting [8]) is 29.77%; with Kunming breed mice [1] (setting [9]) it was 37.66%; with Kunming breed mice [1] (setting [10]) it was 39.95%; in the series with Kunming breed mice [1] (setting [11]) it was 92.88%; with Kunming breed mice [3], 48.0%. Also, the “Increasing rate of threshold pain after administration ( X ± SD)” value (“Increasing rate … ( X ± SD)” for short) in the series on mice [2] (1 mg/kg stomach perfusion, 15 minutes) is reported as −16.6 ± 31.9%; in the series with mice [2] (1 mg/kg stomach perfusion, 30 minutes), −31.9 ± 24.2%; in the series on mice [2] (1 mg/kg stomach perfusion, 60 minutes), −18.1 ± 34.5%; with mice [2] (1 mg/kg stomach perfusion, 90 minutes), −13.0 ± 14.9%; in the series with mice [2] (1 mg/kg stomach perfusion, 120 minutes) it was 28.3 ± 56.3%; with mice [2] (2 mg/kg stomach perfusion, 15 minutes), 72.4 ± 57.6 %. Also, the “Increasing rate … ( X ± SD)” value is listed as 36.0 ± 53.4% with mice [2] (2 mg/kg stomach perfusion, 30 minutes); 17.3 ± 56.1% in the series with mice [2] (2 mg/kg stomach perfusion, 60 minutes); 15.3 ± 60.1% with mice [2] (2 mg/kg stomach perfusion, 90 minutes); −13.0 ± 33.1% with mice [2] (2 mg/kg stomach perfusion, 120 minutes); 142.7 ± 139.4 % in the series with mice [2] (4 mg/kg stomach perfusion, 15 minutes); 104.1 ± 137.4 % with mice [2] (4 mg/kg stomach perfusion, 30 minutes). Moreover, the “Increasing rate … ( X ± SD)” value came out at 81.7 ± 100.0 % with mice [2] (4 mg/kg stomach perfusion, 60 minutes); 34.4 ± 59.3 % in the series with mice [2] (4 mg/kg stomach perfusion, 90 minutes); 59.1 ± 55.6 % in the series on mice [2] (4 mg/kg stomach perfusion, 120 minutes). For the same compound, the LD50 was 10.9 to 15 mg/kg in series [4] (8.19 mg/kg, 95% of the confidence interval of LD50); 12.8 mg/kg in series [4] (8.19 mg/kg, LD50, previous acute toxicology); 12.8 mg/kg in series [4] (LD50). Further, the “dose with no mice dead” value in the series on mice [5] turned out to be 8.19 mg/kg.
`CCOC(=O)C1(c2ccccc2)CCN(C)CC1` [Pethidine hydrochloride, pethidine hydrochloride, reference compound]: in the series on Kunming breed mice [1] (mouse, in vivo, 40 mg/kg), the “Body twisting number ( χ ± SD)” value was 0 ± 0. Further, the Pain suppression rate in the series with Kunming breed mice [1] (mouse, in vivo, 40 mg/kg, hydrochloride) came to 100%.
Regarding `COC[C@]12CN(C)[C@H]3C4C(OC)C1C3(C(OC)CC2O)C1C[C@@]2(O)C(OC(=O)c3ccccc3)C1[C@]4(OC(C)=O)[C@@H](O)C2OC` (stereo partly shown) [Mesaconitine, mesaconitine], the “Body twisting number ( χ ± SD)” value is given as 33.6 ± 11.5 with Kunming breed mice [1] (setting [12]), 20.0 ± 9.6^ΔΔ in the series with Kunming breed mice [1] (setting [8]), 21.8 ± 12.6^ΔΔ with Kunming breed mice [1] (setting [9]) and 19.3 ± 10.0^ΔΔ in the series on Kunming breed mice [1] (setting [10]). Further, the Pain suppression rate came out at 14.50% in the series with Kunming breed mice [1] (setting [12]); 49.11% in the series on Kunming breed mice [1] (setting [8]); 44.53% with Kunming breed mice [1] (setting [9]); 50.89% with Kunming breed mice [1] (setting [10]); 62.6% in the series with Kunming breed mice [6]. Besides, the “Increasing rate … ( X ± SD)” value is reported as 12.1 ± 45.0% with mice [2] (12.5 mg/kg stomach perfusion, 15 minutes); −6.3 ± 31.4% in the series on mice [2] (12.5 mg/kg stomach perfusion, 30 minutes); −0.5 ± 38.7% in the series with mice [2] (12.5 mg/kg stomach perfusion, 60 minutes); −11.3 ± 34.2% with mice [2] (12.5 mg/kg stomach perfusion, 90 minutes); 11.1 ± 38.8% with mice [2] (12.5 mg/kg stomach perfusion, 120 minutes); 39.7 ± 76.6% in the series with mice [2] (25 mg/kg stomach perfusion, 15 minutes). The “Increasing rate … ( X ± SD)” value was 59.2 ± 146.9% in the series on mice [2] (25 mg/kg stomach perfusion, 30 minutes); 37.2 ± 88.5% in the series with mice [2] (25 mg/kg stomach perfusion, 60 minutes); 61.3 ± 82.1^Δ % with mice [2] (25 mg/kg stomach perfusion, 90 minutes); 80.7 ± 100.1% in the series with mice [2] (25 mg/kg stomach perfusion, 120 minutes); 21.4 ± 42.9% with mice [2] (50 mg/kg stomach perfusion, 15 minutes); 14.4 ± 34.7% in the series with mice [2] (50 mg/kg stomach perfusion, 30 minutes). Besides, the “Increasing rate … ( X ± SD)” value with mice [2] (50 mg/kg stomach perfusion, 60 minutes) is 7.9 ± 37.8%; in the series on mice [2] (50 mg/kg stomach perfusion, 90 minutes), 30.4 ± 44.1^Δ %; with mice [2] (50 mg/kg stomach perfusion, 120 minutes), 36.0 ± 42.6%; in the series on mice [2] (mesaconitine 100 mg/kg stomach perfusion, 15 minutes) it was 124.8 ± 165.4%; in the series on mice [2] (mesaconitine 100 mg/kg stomach perfusion, 30 minutes) it was 97.7 ± 184.6%; in the series on mice [2] (mesaconitine 100 mg/kg stomach perfusion, 60 minutes) it was 64.3 ± 149.5%. Moreover, the “Increasing rate … ( X ± SD)” value with mice [2] (mesaconitine 100 mg/kg stomach perfusion, 90 minutes) was 108.3 ± 105.0^ΔΔ %; in the series on mice [2] (mesaconitine 100 mg/kg stomach perfusion, 120 minutes), 49.0 ± 52.9%. The same compound gave an LD50 in series [4] (LD50) of 6.41 mg/kg.
As for `COC[C@]12CN(C)[C@H]3C4C(OC)C1C3(C(OC)CC2O)C1C[C@@]2(O)C(OC(=O)c3ccccc3)C1[C@]4(O)[C@@H](O)C2OC` (stereo partly shown) [Benzoylmesaconitine, benzoylmesaconitine], the “Body twisting number ( χ ± SD)” value with Kunming breed mice [1] (setting [13]) is listed as 27.2 ± 12.2; with Kunming breed mice [1] (setting [14]), 27.4 ± 15.9; with Kunming breed mice [1] (setting [15]) it was 21.0 ± 15.1; in the series with Kunming breed mice [1] (setting [16]), 20.4 ± 12.9. Also, the Pain suppression rate was determined as 20.70% with Kunming breed mice [1] (setting [13]); 20.12% with Kunming breed mice [1] (setting [14]); 38.78% in the series on Kunming breed mice [1] (setting [15]); 40.52% with Kunming breed mice [1] (setting [16]); 34.6% with Kunming breed mice [7]. Besides, the “Increasing rate … ( X ± SD)” value is 22.1 ± 52.0% with mice [2] (200 mg/kg stomach perfusion, 15 minutes); 32.9 ± 45.1 % in the series on mice [2] (200 mg/kg stomach perfusion, 30 minutes); 40.3 ± 76.4% in the series with mice [2] (200 mg/kg stomach perfusion, 60 minutes); 46.0 ± 87.4% in the series on mice [2] (200 mg/kg stomach perfusion, 90 minutes); 53.6 ± 93.9% in the series on mice [2] (200 mg/kg stomach perfusion, 120 minutes); 41.3 ± 90.2% in the series on mice [2] (400 mg/kg stomach perfusion, 15 minutes). The “Increasing rate … ( X ± SD)” value with mice [2] (400 mg/kg stomach perfusion, 30 minutes) is reported as 35.2 ± 57.2 %; in the series with mice [2] (400 mg/kg stomach perfusion, 60 minutes) it was 78.8 ± 104.0 %; in the series with mice [2] (400 mg/kg stomach perfusion, 90 minutes) it was 59.5 ± 88.5%; with mice [2] (400 mg/kg stomach perfusion, 120 minutes) it was 53.7 ± 117.0%; in the series on mice [2] (benzoylmesaconitine 100 mg/kg stomach perfusion, 15 minutes), −0.4 ± 33.8%; in the series with mice [2] (benzoylmesaconitine 100 mg/kg stomach perfusion, 30 minutes) it was 13.7 ± 52.3%. Also, the “Increasing rate … ( X ± SD)” value in the series with mice [2] (benzoylmesaconitine 100 mg/kg stomach perfusion, 60 minutes) is 64.6 ± 76.7 %; in the series on mice [2] (benzoylmesaconitine 100 mg/kg stomach perfusion, 90 minutes), 71.1 ± 104.5%; in the series on mice [2] (benzoylmesaconitine 100 mg/kg stomach perfusion, 120 minutes), 106.2 ± 116.5%. In the series on mice [5], this compound gave a maximum tolerance dose of 1000 mg/kg.
